# Measured values taken from patent US11211249B2, “Herbal extracts and flavor systems for oral products and methods of making the same” (Sensient Flavors LLC, priority 2008, dated 2021).
# Experiment: Flavor release from chewing gum, mechanical mastication device with artificial saliva
# Assay type: physicochemical
# Conditions: chewing gum with 2% flavor system
# Protocol: To test if adequate flavor is released from chewing gum, the chewing gums made in Example 5 were tested using a mechanical instrument to simulate human mastication of chewing gum, which can be found in Kleber et al. A mastication device designed for the evaluation of chewing gum is set forth in Journal of Dental Research, 1981, 109-114, which is incorporated herein in its entirety. Artificial saliva (15 ml) was placed in the reservoir, and the thermostatically controlled heating element was turned on to maintain the saliva and gum at body temperature for proper chewing consistency. One stick of test chewing gum (approximately 3 grams with 2% flavor system added) was placed in the warmed chamber and the artificial saliva was exposed to the chewing gum for 1 minute under chewing simulation conditions. All the artificial saliva (15 ml) was removed as quickly as possible with a pipette, delivered immediately into a glass bottle and sealed. The saliva was replaced with a fresh 15 ml aliquot, the chewing conditions restarted and the gum samples were treated for another minute. […] Two markers, Marker 1, thymol, and Marker 2, menthol, were selected to monitor flavor release based on quantity and antimicrobial efficiency. […] It was estimated that enough flavor was released during the first 15-20 minutes to have antimicrobial activity based on the quantity released and the MIC results.
compound,measurement,value
"Cc1ccc(C(C)C)c(O)c1 [Marker 1, thymol]",release course over time of chewing,released constantly for the first 10 minutes and afterward decreases
